According to US20250127754A1, “Pharmaceutical Application of Dimyricetin-yl-diselenide in Atherosclerosis” (Shanghai Spark Pharmaceutical Co., Ltd., priority 2023, published 2025):
“Also recorded” adds a separate entry of the source.

Legend:
Format in all cases: in vivo
ApoE−/− mice [1] = experiment: Body weight, high-fat diet atherosclerosis model; conditions: HFD-fed ApoE−/− mice, compared with control group; FIG. 1
Procedure: (§1) Upon arrival, ApoE−/− mice were acclimatized to the experimental facility for 3 days. After an overnight fast (12 hours), blood samples were collected to measure baseline levels of serum lipids (TC, TG, HDL-C, LDL-C) and LDH. Control mice were fed a regular diet, while the remaining mice were fed a high-fat diet for 18 weeks. The regular diet contained 11% kcal fat and 0% cholesterol, while the high-fat diet contained 40% kcal fat and 0.21% cholesterol. At 8 weeks of high-fat feeding, the animals underwent echocardiography and blood biochemical tests. Based on their TC values, they were randomly assigned to the following groups: blank control, model control, positive control, AQ-C-a, DMS-ASD, and DMS (refer to Table 2 in Section 6.5). Drug administration continued for 10 weeks. During the experiment, the animals' appearance, behavior, and physical condition were observed, and their body weight, echocardiography, serum lipids (TC, TG, HDL-C, and LDL-C), and blood biochemistry (LDH, SOD, and MDA) were monitored. At the end of the experiment (Week 18), hearts and aortas were collected for Oil Red O staining and histopathological analysis.
All animals were given medicine […] once a day during the medication period;

ApoE−/− mice [2] = experiment: Plasma SOD and MDA, high-fat diet atherosclerosis model; parameters: MDA: unit not given here; conditions: QD: Atorvastatin 20 mg/kg P.O., AQ-C-a 300 mg/kg P.O., DMS-ASD 300 mg/kg P.O., DMS 20 mg/kg SC
Procedure: as §1
(§2) Animals were fasted the night before blood collection. Blood samples were collected and anticoagulated with heparin to prepare plasma for the detection of TG, TC, HDL-C, LDL-c, and LDH. Blood was collected at six time points: Week 0, Week 8, Week 10, Week 12, Week 16, and Week 18. SOD and MDA levels were measured at Week 16 and Week 18.

ApoE−/− mice [3] = experiment: Blood lipids (TG, TC, HDL-C, LDL-C) in plasma, high-fat diet atherosclerosis model; parameters: TG / TC / HDL-C / LDL-C: unit not given here; conditions: for Effect on LDL-c (in words) / Effect on TC (in words): compared to the model group
Procedure: as §1, §2

ApoE−/− mice [4] = experiment: Plasma LDH content, high-fat diet atherosclerosis model; parameters: LDH: unit not given here
From the text: Upon arrival, ApoE−/− mice were acclimatized to the experimental facility for 3 days. […] Control mice were fed a regular diet, while the remaining mice were fed a high-fat diet for 18 weeks. […] At 8 weeks of high-fat feeding, the animals underwent echocardiography and blood biochemical tests. […] Drug administration continued for 10 weeks. During the experiment, the animals' appearance, behavior, and physical condition were observed, and their body weight, echocardiography, serum lipids (TC, TG, HDL-C, and LDL-C), and blood biochemistry (LDH, SOD, and MDA) were monitored. At the end of the experiment (Week 18), hearts and aortas were collected for Oil Red O staining and histopathological analysis. Animals were fasted the night before blood collection. Blood samples were collected and anticoagulated with heparin to prepare plasma for the detection of TG, TC, HDL-C, LDL-c, and LDH.

ApoE−/− mice [5] = experiment: Aortic fat plaque examination (oil red O staining); conditions: for Effect on percentage of aortic plaque (in words): end of 18th week, compared with the model group; for % Patch area (aortic plaque): week 18, oil red staining of aorta, 10 weeks QD: Atorvastatin 20 mg/kg P.O., AQ-C-a 300 mg/kg P.O., DMS-ASD 300 mg/kg P.O., DMS 20 mg/kg SC
Procedure: as §1
Aortic oil red O staining was performed. The experimental endpoint was set at Week 10 post-treatment. After euthanasia, the aorta was collected from the aortic arch to the iliac artery and subjected to oil red O staining to analyze the accumulation of fat plaques in the aorta.

ApoE−/− mice [6] = experiment: Heart weight and heart weight index (tibial length corrected); conditions: 10 weeks QD: Atorvastatin 20 mg/kg P.O., AQ-C-a 300 mg/kg P.O., DMS-ASD 300 mg/kg P.O., DMS 20 mg/kg SC; for Heart: heart weight at end of experiment (week 18)
Procedure: At the experimental endpoint, hearts and tibias were collected. The heart was weighed and its weight index was calculated using tibial length for correction, with the formula: Heart Index=Heart Weight (g)/Tibial Length (cm)×100%. The heart was fixed in 4% PFA and subjected to HE staining to evaluate fat plaques in the outflow tract.

[7] = week 0, baseline before HFD and dosing, fasted plasma, mean±standard error
[8] = week 8 of HFD, before start of dosing, fasted plasma
[9] = week 10 of HFD (2 weeks dosing), QD: Atorvastatin 20 mg/kg P.O., AQ-C-a 300 mg/kg P.O., DMS-ASD 300 mg/kg P.O., DMS 20 mg/kg SC
[10] = week 12 of HFD (4 weeks dosing), QD: Atorvastatin 20 mg/kg P.O., AQ-C-a 300 mg/kg P.O., DMS-ASD 300 mg/kg P.O., DMS 20 mg/kg SC
[11] = week 16 of HFD (8 weeks dosing), QD: Atorvastatin 20 mg/kg P.O., AQ-C-a 300 mg/kg P.O., DMS-ASD 300 mg/kg P.O., DMS 20 mg/kg SC
[12] = week 18 of HFD (10 weeks dosing), QD: Atorvastatin 20 mg/kg P.O., AQ-C-a 300 mg/kg P.O., DMS-ASD 300 mg/kg P.O., DMS 20 mg/kg SC

Compound: CC(C)c1c(C(=O)Nc2ccccc2)c(-c2ccccc2)c(-c2ccc(F)cc2)n1CC[C@@H](O)C[C@@H](O)CC(=O)O [Atorvastatin, reference compound]
- Effect on body weight (in words) (ApoE−/− mice [1]): significantly greater than those in the control group
- SOD (ApoE−/− mice [2]; week 16 (8 weeks dosing)): 0.87 ± 0.09 U/mL
- SOD (ApoE−/− mice [2]; week 18 (10 weeks dosing)): 0.99 ± 0.09 U/mL
- Effect on LDL-c (in words) (ApoE−/− mice [3]): significantly reduced
- Effect on TC (in words) (ApoE−/− mice [3]): significantly reduced
- HDL-C (ApoE−/− mice [3]; [7]): 1.53 ± 0.15
- LDL-C (ApoE−/− mice [3]; [7]): 5.63 ± 0.34
- TC (ApoE−/− mice [3]; [7]): 10.12 ± 0.84
- TG (ApoE−/− mice [3]; [7]): 1.79 ± 0.14
- HDL-C (ApoE−/− mice [3]; [8]): 1.36 ± 0.13
- LDL-C (ApoE−/− mice [3]; [8]): 22.23 ± 1.6
- TC (ApoE−/− mice [3]; [8]): 28.87 ± 2.19
- TG (ApoE−/− mice [3]; [8]): 1.35 ± 0.17
- HDL-C (ApoE−/− mice [3]; [9]): 1.51 ± 0.06
- LDL-C (ApoE−/− mice [3]; [9]): 16.31 ± 0.92
- TC (ApoE−/− mice [3]; [9]): 22.38 ± 1.25
- TG (ApoE−/− mice [3]; [9]): 2.31 ± 0.18
- HDL-C (ApoE−/− mice [3]; [10]): 1.59 ± 0.09
- LDL-C (ApoE−/− mice [3]; [10]): 20.24 ± 2
- TC (ApoE−/− mice [3]; [10]): 27.29 ± 2.61
- TG (ApoE−/− mice [3]; [10]): 2.2 ± 0.13
- HDL-C (ApoE−/− mice [3]; [11]): 2.53 ± 0.12
- LDL-C (ApoE−/− mice [3]; [11]): 14.32 ± 1.08
- TC (ApoE−/− mice [3]; [11]): 19.14 ± 1.34
- TG (ApoE−/− mice [3]; [11]): 1.99 ± 0.2
- HDL-C (ApoE−/− mice [3]; [12]): 2.5 ± 0.18
- LDL-C (ApoE−/− mice [3]; [12]): 13.87 ± 1.51
- TC (ApoE−/− mice [3]; [12]): 18.89 ± 2.11
- TG (ApoE−/− mice [3]; [12]): 1.51 ± 0.09
- LDH (ApoE−/− mice [4]; [7]): 948.67 ± 117.19
- LDH (ApoE−/− mice [4]; [8]): 1176.67 ± 142.27
- LDH (ApoE−/− mice [4]; [9]): 620 ± 62.03
- LDH (ApoE−/− mice [4]; [10]): 422.67 ± 50.59
- LDH (ApoE−/− mice [4]; [11]): 384 ± 25.93
- LDH (ApoE−/− mice [4]; [12]): 1384.67 ± 191.24
- Effect on percentage of aortic plaque (in words) (ApoE−/− mice [5]): significantly reduced
- % Patch area (aortic plaque) (ApoE−/− mice [5]): 6.86 ± 1.21 %
- Heart (ApoE−/− mice [6]): 0.192 ± 0.009 g

Compound: Dimyricetin-yl-diselenide [DMS]
- Effect on body weight (in words) (ApoE−/− mice [1]): stabilized from the 10th to 11th week and overlapped with the control group's weight curve by the 14th week; also recorded: inhibiting the increase
- MDA (ApoE−/− mice [2]; week 16 (8 weeks dosing)): 7.19 ± 1.15
- SOD (ApoE−/− mice [2]; week 16 (8 weeks dosing)): 1.06 ± 0.14 U/mL
- MDA (ApoE−/− mice [2]; week 18 (10 weeks dosing)): 6.08 ± 0.50
- SOD (ApoE−/− mice [2]; week 18 (10 weeks dosing)): 0.87 ± 0.03 U/mL
- Effect on LDL-c (in words) (ApoE−/− mice [3]): trend of reducing; also recorded: inhibiting the increase
- Effect on TC (in words) (ApoE−/− mice [3]): trend of reducing; also recorded: inhibiting the increase
- HDL-C (ApoE−/− mice [3]; [7]): 1.63 ± 0.12
- LDL-C (ApoE−/− mice [3]; [7]): 6.07 ± 0.19
- TC (ApoE−/− mice [3]; [7]): 11.84 ± 0.85
- TG (ApoE−/− mice [3]; [7]): 1.99 ± 0.14
- HDL-C (ApoE−/− mice [3]; [8]): 1.38 ± 0.15
- LDL-C (ApoE−/− mice [3]; [8]): 22.09 ± 1.86
- TC (ApoE−/− mice [3]; [8]): 28.69 ± 2.34
- TG (ApoE−/− mice [3]; [8]): 1.26 ± 0.07
- HDL-C (ApoE−/− mice [3]; [9]): 1.44 ± 0.07
- LDL-C (ApoE−/− mice [3]; [9]): 23.38 ± 1.46
- TC (ApoE−/− mice [3]; [9]): 30.95 ± 1.95
- TG (ApoE−/− mice [3]; [9]): 2.14 ± 0.1
- HDL-C (ApoE−/− mice [3]; [10]): 1.44 ± 0.07
- LDL-C (ApoE−/− mice [3]; [10]): 23.38 ± 1.46
- TC (ApoE−/− mice [3]; [10]): 32.35 ± 1.96
- TG (ApoE−/− mice [3]; [10]): 2.29 ± 0.2
- HDL-C (ApoE−/− mice [3]; [11]): 2.27 ± 0.15
- LDL-C (ApoE−/− mice [3]; [11]): 21.1 ± 1.23
- TC (ApoE−/− mice [3]; [11]): 27.78 ± 1.36
- TG (ApoE−/− mice [3]; [11]): 2.71 ± 0.35
- HDL-C (ApoE−/− mice [3]; [12]): 2.1 ± 0.19
- LDL-C (ApoE−/− mice [3]; [12]): 15.94 ± 1.32
- TC (ApoE−/− mice [3]; [12]): 20.92 ± 1.78
- TG (ApoE−/− mice [3]; [12]): 1.27 ± 0.06
- Effect on plasma LDH (in words) (ApoE−/− mice [4]; 18th week, compared to the model group, P<0.05): significant reductions; also recorded: inhibiting the increase
- LDH (ApoE−/− mice [4]; [7]): 1083.25 ± 375.4
- LDH (ApoE−/− mice [4]; [8]): 1022.5 ± 112.95
- LDH (ApoE−/− mice [4]; [9]): 401.5 ± 22.95
- LDH (ApoE−/− mice [4]; [10]): 368.5 ± 26.82
- LDH (ApoE−/− mice [4]; [11]): 361.88 ± 20.78
- LDH (ApoE−/− mice [4]; [12]): 719 ± 81.08
- Effect on percentage of aortic plaque (in words) (ApoE−/− mice [5]): statistically significant compared with the model group; also recorded: reducing the area
- % Patch area (aortic plaque) (ApoE−/− mice [5]): 8.43 ± 0.95 %
- Heart (ApoE−/− mice [6]): 0.169 ± 0.010 g
- Cardiac weight index (ApoE−/− mice [6]; heart weight/tibial length, week 18): 0.095 ± 0.006 g/cm
